Results: article PMC5063400, “A Natural Mutation in Helix 5 of the Ligand Binding Domain of Glucocorticoid Receptor Enhances Receptor-Ligand Interaction” (PLoS ONE, 2016)
Numbering of substitutions follows the chain as printed. Entries after “also recorded” stand apart in the source; their conditions may differ. Like-named read-outs stand apart in the source and are kept apart here.

Legend:
[1] = molecular target: T1, porcine GR Ala610 (wild-type) (Sus scrofa, UniProt Q9N1U3, V610A); assay: Transactivation assay (MMTV-luciferase reporter) in Cos-7 cells, wild-type Ala610 GR; assay type: cell-based; details: for EC50: Cos-7 cells
T1 construct: expressed in transfected cells; host or cells: Cos-7
T1 sequence (Q9N1U3 1-782 V610A): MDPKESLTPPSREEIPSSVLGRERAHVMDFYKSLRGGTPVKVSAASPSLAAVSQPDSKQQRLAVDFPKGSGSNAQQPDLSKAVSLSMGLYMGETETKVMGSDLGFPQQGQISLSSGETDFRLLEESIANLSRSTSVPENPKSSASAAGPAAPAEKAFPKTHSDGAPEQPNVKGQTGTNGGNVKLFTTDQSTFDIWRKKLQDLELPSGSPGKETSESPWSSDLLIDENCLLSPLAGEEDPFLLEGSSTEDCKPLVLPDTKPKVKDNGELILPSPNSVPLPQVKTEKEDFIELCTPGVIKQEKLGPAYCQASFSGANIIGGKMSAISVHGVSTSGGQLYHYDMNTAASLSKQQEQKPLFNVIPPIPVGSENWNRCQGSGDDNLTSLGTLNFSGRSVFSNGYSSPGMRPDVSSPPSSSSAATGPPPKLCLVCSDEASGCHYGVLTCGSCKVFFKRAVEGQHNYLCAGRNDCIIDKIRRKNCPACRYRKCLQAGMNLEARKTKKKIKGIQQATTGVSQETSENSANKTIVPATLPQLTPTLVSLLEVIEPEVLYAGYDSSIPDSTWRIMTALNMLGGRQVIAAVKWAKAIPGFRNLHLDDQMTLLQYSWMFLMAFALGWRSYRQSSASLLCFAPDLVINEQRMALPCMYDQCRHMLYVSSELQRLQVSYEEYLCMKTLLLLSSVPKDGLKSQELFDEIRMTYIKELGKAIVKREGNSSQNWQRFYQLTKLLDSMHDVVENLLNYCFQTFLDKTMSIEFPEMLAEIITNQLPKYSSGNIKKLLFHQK
Description: Porcine GR expression plasmids (pCMV-GRA610 or pCMV-GRV610) harboring the SNP NR3C1 c.1829C>T (causing the Ala610Val substitution) were used for a transactivation assay in Cos-7 cells as previously described. In brief, monkey kidney Cos-7 cells were seeded in 96-well plates at a density of 2.5×10^4 cells/well in DMEM (Invitrogen, Karlsruhe, Germany) with 10% FCS. Twenty-four hours after seeding, cells were co-transfected with 200 ng of expression vector, 100 ng of pGL4.36 reporter (Promega, Mannheim, Germany) and 2 ng of pRL-SV40 plasmid (Promega) according to the Lipofectamine 2000 protocol (Invitrogen). The reporter plasmid pGL4.36 expresses firefly luciferase under control of the glucocorticoid-inducible MMTV (Murine Mammary Tumor Virus Long Terminal repeat) promoter while the pRL-SV40 vector constitutively expresses the Renilla luciferase and was used to normalize for transfection efficiency. […] Therefore, cell media was replaced by DMEM supplemented with respective steroid concentrations and 10% charcoal-stripped FCS (PAA Laboratories, Coelbe, Germany). Twenty-four hours after stimulation, firefly and Renilla luciferase activities were measured using the Dual-Glo Luciferase Assay System (Promega) in a DTX 880 Multimode Detector (Beckman Coulter, Krefeld, Germany).
Transcript abundance was corrected for the copy number of expression plasmid.
For all steroids except testosterone, two separate experiments were performed in triplicate. Data were adjusted for transfection efficiency and the resulting luciferase ratios were normalized to cells that were treated with ethanol only. Fold-changes of transcriptional activity were compared using a generalized mixed linear model including fixed effects of genotype, hormone concentration, and the interaction of the two. Data were analyzed using SAS V9.3 software (SAS Institute, Cary, NC, USA). Least-square means were compared at each concentration and p-values were adjusted by Dunnett’s post-hoc test. Fold-change values were further adjusted to maximum relative luciferase induction and dose-response curves, EC50, and significance of EC50 differences were estimated using dose-response equation of GraphPad Prism 5 (GraphPad Software Inc, San Diego, CA).

[2] = molecular target: T2, porcine GR Val610 (mutant) (Sus scrofa, UniProt Q9N1U3); assay: Transactivation assay (MMTV-luciferase reporter) in Cos-7 cells, mutant Val610 GR
T2 sequence (Q9N1U3 1-782): T1 sequence (Q9N1U3 1-782 V610A) with A610V
Description: Porcine GR expression plasmids (pCMV-GRA610 or pCMV-GRV610) harboring the SNP NR3C1 c.1829C>T (causing the Ala610Val substitution) were used for a transactivation assay in Cos-7 cells as previously described [13]. In brief, monkey kidney Cos-7 cells were seeded in 96-well plates at a density of 2.5×10^4 cells/well in DMEM (Invitrogen, Karlsruhe, Germany) with 10% FCS. Twenty-four hours after seeding, cells were co-transfected with 200 ng of expression vector, 100 ng of pGL4.36 reporter (Promega, Mannheim, Germany) and 2 ng of pRL-SV40 plasmid (Promega) according to the Lipofectamine 2000 protocol (Invitrogen). The reporter plasmid pGL4.36 expresses firefly luciferase under control of the glucocorticoid-inducible MMTV (Murine Mammary Tumor Virus Long Terminal repeat) promoter while the pRL-SV40 vector constitutively expresses the Renilla luciferase and was used to normalize for transfection efficiency. […] Therefore, cell media was replaced by DMEM supplemented with respective steroid concentrations and 10% charcoal-stripped FCS (PAA Laboratories, Coelbe, Germany). Twenty-four hours after stimulation, firefly and Renilla luciferase activities were measured using the Dual-Glo Luciferase Assay System (Promega) in a DTX 880 Multimode Detector (Beckman Coulter, Krefeld, Germany).

Ala610 GR [3] = molecular target: T3, Ala610 GR (Sus scrofa, UniProt Q9N1U3, V610A); details: [3H]-dexamethasone, whole Cos-7 cells, mean ± SE
Description: (§1) A whole-cell GR binding assay was adapted from the protocol previously described for peripheral blood mononuclear cells (PBMC). Cos-7 cells were seeded in 10-cm dishes and T75 flasks at a density of 1.75x10^5 cells/mL. After 24 hours in culture, cells were transfected with pCMV-GRA610 or pCMV-GRV610 using either 10 μg plasmid and 50 μL Fugene HD (Promega) for dishes or 15 μg plasmid and 75 μL Fugene HD for flasks. After another 24 hours in culture, media were replaced with serum-free DMEM to avoid contamination with steroids. One day later cells were pelleted, washed with PBS, and resuspended in DMEM supplemented with 10 mM HEPES buffer. […] After incubation, cells were washed with ice-cold PBS and centrifuged (10 min, 400 × g, 4°C) three times. Cell pellets were then resuspended in 100 μL PBS and mixed with 3 mL scintillation fluid (Rotiszint eco plus, Carl Roth GmbH, Karlsruhe, Germany). Radioactivity was measured in a spectral liquid scintillation counter (Tri-Carb 2900TR, Perkin Elmer Inc., USA) at 50% efficiency. The experiment was performed three times.
(§2) Saturation binding analysis included in nonlinear regression models implemented in GraphPad Prism 5 was used to fit binding curves to estimate the dissociation constant (KD, mean ± SE), maximum specific binding (Bmax, mean ± SE), and differences in these values dependent upon GR genotype.

Ala610 GR [4] = molecular target: T3, Ala610 GR; details: [3H]-dexamethasone, pituitary cytosol, homozygous wild-type
Description: (§3) Pituitary glands were quickly removed from pigs after electronarcotization and exsanguination, snap-frozen, and stored at -80°C. […] Nine pools per genotype, each containing two to three samples, were analyzed. In total 40 pituitaries were used. Pituitaries from homozygous carriers of the alternative variant were not available due to its low frequency.
(§4) GR binding analysis was performed on the pooled samples as previously described. Briefly, tissues were homogenized in ice-cold 10 mM Tris-HCl buffer, pH 7.5, containing 12.5 mM EDTA, 10 mM sodium molybdate, […] sucrose, and 5 mM dithiothreitol using an electric homogenizer (Ultra-Turrax, IKA, Staufen, Germany). The homogenate was centrifuged at 120,000 × g for 60 min at 0–4°C to isolate cytosol (supernatant fraction). […] Non-specific binding was determined with a parallel incubation containing 500-fold excess of RU 28362 (kindly donated by Roussel Uclaf, France), which binds selectively to GR. The separation of bound from free ligand was performed by precipitation with dextran-coated charcoal and the receptor-[^3H]-steroid complexes were counted in the Tri-Carb 2900TR scintillation counter at 50% efficiency. Protein concentrations for each pool were determined with bovine serum albumin as a standard. Binding values were corrected for the amount of protein input. Individual binding curves for each pool were fitted using GraphPad Prism 5 as described above. Resulting KD and Bmax values were compared between genotypes using a mixed linear model implemented in SAS. The model included the effect of genotype and experimental batch.

AlaVal610 GR = AlaVal610 GR (Sus scrofa, UniProt Q9N1U3); details: pituitary cytosol
Sequence of AlaVal610 GR (Q9N1U3 whole entry): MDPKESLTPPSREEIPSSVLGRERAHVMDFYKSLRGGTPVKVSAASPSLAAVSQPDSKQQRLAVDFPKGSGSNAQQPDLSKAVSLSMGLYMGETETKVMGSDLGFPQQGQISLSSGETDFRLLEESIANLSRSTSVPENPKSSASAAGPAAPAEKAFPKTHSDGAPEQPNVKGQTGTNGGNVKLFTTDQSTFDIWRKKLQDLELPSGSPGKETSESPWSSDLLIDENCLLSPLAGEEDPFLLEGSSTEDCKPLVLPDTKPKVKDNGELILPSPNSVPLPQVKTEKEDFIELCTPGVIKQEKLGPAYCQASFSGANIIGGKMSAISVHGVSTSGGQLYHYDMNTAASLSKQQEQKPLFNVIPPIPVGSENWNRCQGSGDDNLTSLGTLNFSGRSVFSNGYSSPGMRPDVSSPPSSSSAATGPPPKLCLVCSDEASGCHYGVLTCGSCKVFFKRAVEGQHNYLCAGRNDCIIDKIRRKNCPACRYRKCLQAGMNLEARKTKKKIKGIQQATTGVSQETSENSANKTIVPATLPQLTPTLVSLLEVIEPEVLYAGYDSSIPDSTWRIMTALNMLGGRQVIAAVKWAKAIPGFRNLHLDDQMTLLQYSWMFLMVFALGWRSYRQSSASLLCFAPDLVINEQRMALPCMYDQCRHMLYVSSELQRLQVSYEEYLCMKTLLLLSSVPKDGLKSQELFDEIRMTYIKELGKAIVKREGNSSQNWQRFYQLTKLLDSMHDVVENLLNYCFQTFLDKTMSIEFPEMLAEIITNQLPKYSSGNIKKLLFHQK
Sequence of AlaVal610 GR (Q9N1U3 whole entry): as above
Description: as §3, §4

Val610 GR = Val610 GR (Sus scrofa, UniProt Q9N1U3); assay: cell-based
Sequence of Val610 GR (Q9N1U3 whole entry): as above
Description: as §1, §2

GFP-tagged Val610 GR = GFP-tagged Val610 GR (Sus scrofa, UniProt Q9N1U3); details: Cos-7 cells, after stimulation with dexamethasone
Sequence of GFP-tagged Val610 GR (Q9N1U3 whole entry, the tested form may be a part): as the sequence (Q9N1U3 whole entry) above
Excerpt: (§5) Green fluorescent protein (GFP)-tagged expression vectors were generated to track subcellular distribution and movement of both GR variants. In brief, the EGFP region was amplified from EGFP-N1 (Clontech, Heidelberg, Germany), using primers EGFP_N_fw and EGFP_N_rev (Table 1) and the proofreading PrimeSTAR HS DNA Polymerase (MoBiTec, Göttingen, Germany). The product was inserted into the pCMV-Tag1 vector (Agilent Technologies, Waldbronn, Germany) using NotI restriction sites. The resulting plasmid was further digested with BamHI and BglII restriction enzymes to insert BclI digested GR-alpha fragments. Therefore, GR-alpha fragments were amplified using cDNA of two individuals homozygous for the c.1829C>T SNP with primers GR_N-Flag_fw2 and GR_N-Flag_rev (Table 1). […]
(§6) Cos-7 cells were seeded in culture dishes (Greiner Bio-One, Frickenhausen, Germany) or 8-well chamber slides (VWR International, Hannover, Germany) for live cell imaging at a density of 1.6x10^5 cells/mL in DMEM with 10% FCS and transfected one day later with pCMV-GFP-GRA610 or pCMV-GFP-GRV610 using a Lipofectamine:DNA-ratio of 3:1. […] Before visualization by microscopy, media were replaced with phenol red-free DMEM supplemented with 5% charcoal stripped FCS, and the dish or slide to be analyzed was placed in a microscope incubator at 37°C and 5% CO2.

GFP-tagged Ala610 GR = GFP-tagged Ala610 GR (Sus scrofa, UniProt Q9N1U3, V610A); details: Cos-7 cells, after stimulation with dexamethasone
Excerpt: as §5, §6

[5] = wide concentration range 0.01 nM to 10 μM, 24 h stimulation

C[C@]12CCC(=O)C=C1CC[C@@H]1[C@@H]2[C@@H](O)C[C@]2(C=O)[C@@H](C(=O)CO)CC[C@@H]12 [aldosterone]
EC50 [1, 5]: 161 nM | EC50 [2]: 50.6 nM

C[C@]12CC[C@H]3[C@@H](CCC4=CC(=O)CC[C@@]43C)[C@@H]1CC[C@@H]2O [testosterone]
activation of the MMTV-driven luciferase reporter ([1]; data not shown): unable to activate | activation of the MMTV-driven luciferase reporter ([2]; Val610 GR, data not shown): unable to activate; also recorded: remained insensitive

C[C@]12CCC(=O)C=C1CC[C@@H]1[C@@H]2[C@@H](O)C[C@@]2(C)[C@H]1CC[C@]2(O)C(=O)CO [cortisol]
EC50 ([1]; narrow concentration range): 37.2 nM | EC50 [1, 5]: 44.7 nM | EC50 [2]: 36.5 nM | EC50 ([2]; EC50 of transactivation, Val610 GR, Cos-7 cells, narrow concentration range): 22.9 nM

C[C@@H]1C[C@H]2[C@@H]3CCC4=CC(=O)C=C[C@]4(C)[C@@]3(F)[C@@H](O)C[C@]2(C)[C@@]1(O)C(=O)CO [dexamethasone]
Bmax (maximum specific binding) (Ala610 GR [3]): 1479 ± 79.7 fmol/mL | Bmax (Ala610 GR [4]): 62.2 ± 5.9 fmol/mg protein | Kd (AlaVal610 GR; [3H]-dexamethasone 0.2 to 24 nM, heterozygous carriers): 0.529 ± 0.068 nM | Bmax (AlaVal610 GR; [3H]-dexamethasone, heterozygous carriers): 63.4 ± 5.0 fmol/mg protein | increased affinity of heterozygous carriers compared to wild-type controls (AlaVal610 GR): 1.7 fold | Kd (Val610 GR): 6.08 nM | Bmax (maximum specific binding) (Val610 GR; [3H]-dexamethasone, whole Cos-7 cells, mean ± SE): 1204 ± 118.1 fmol/mL | time to full translocation into the nucleus (GFP-tagged Val610 GR): ≤ 15 min | time to full translocation into the nucleus (GFP-tagged Ala610 GR): ≤ 15 min
